Laboratory results taken from US10238670B2, “9-aminomethyl minocycline compounds and methods of use thereof in urinary tract infection (UTI) treatment” (Paratek Pharmaceuticals, Inc., priority 2016, dated 2019).
Converted amounts (≈) assume the structure as drawn.

Experiments:
Assay in all cases: In vitro MIC, 2010 surveillance isolates
[1] = system: MR CoNS; type: cell-based, Coagulase-Negative Staphylococcus
[2] = system: MS CoNS; type: cell-based, Coagulase-Negative Staphylococcus
[3] = system: MRSA; type: cell-based
[4] = system: E. faecium VNS; type: cell-based
[5] = system: E. faecalis VNS; type: cell-based
[6] = system: E. faecium VS; type: cell-based
[7] = system: MSSA; type: cell-based
[8] = system: E. faecalis VS; type: cell-based

## CN[C@H](CC(C)C)C(=O)N[C@H]1C(=O)N[C@@H](CC(N)=O)C(=O)N[C@H]2C(=O)N[C@H]3C(=O)N[C@H](C(=O)N[C@H](C(=O)O)c4cc(O)cc(O)c4-c4cc3ccc4O)[C@H](O)c3ccc(c(Cl)c3)Oc3cc2cc(c3O[C@@H]2O[C@H](CO)[C@@H](O)[C@H](O)[C@H]2O[C@H]2C[C@](C)(N)[C@H](O)[C@H](C)O2)Oc2ccc(cc2Cl)[C@H]1O [Vancomycin]
[1]; Asia/Pac, Eucast breakpoints
  % R (resistance): 1.3%
[1]; Asia/Pac, N=77
  MIC90: 2 µg/mL (≈ 1.38 µM)
[1]; Europe, Eucast breakpoints
  % R (resistance): 0.4%
[1]; Europe, N=510
  MIC90: 2 µg/mL (≈ 1.38 µM)
[1]; L. Amer, CLSI breakpoints
  % R (resistance): 0%
[1]; L. Amer, N=301
  MIC90: 2 µg/mL (≈ 1.38 µM)
[1]; N America, CLSI breakpoints
  % R (resistance): 0%
[1]; N America, N=461
  MIC90: 2 µg/mL (≈ 1.38 µM)
[2]; Asia/Pac, Eucast breakpoints
  % R (resistance): 0%
[2]; Asia/Pac, N=18
  MIC90: 2 µg/mL (≈ 1.38 µM)
[2]; Europe, Eucast breakpoints
  % R (resistance): 1.1%
[2]; Europe, N=185
  MIC90: 2 µg/mL (≈ 1.38 µM)
[2]; L. Amer, CLSI breakpoints
  % R (resistance): 0%
[2]; L. Amer, N=67
  MIC90: 2 µg/mL (≈ 1.38 µM)
[2]; N America, CLSI breakpoints
  % R (resistance): 0%
[2]; N America, N=191
  MIC90: 2 µg/mL (≈ 1.38 µM)
[3]; Asia/Pac, Eucast breakpoints
  % R (resistance): 0%
[3]; Asia/Pac, N=428
  MIC90: 1 µg/mL (≈ 0.69 µM)
[3]; Europe, Eucast breakpoints
  % R (resistance): 0%
[3]; Europe, N=750
  MIC90: 1 µg/mL (≈ 0.69 µM)
[3]; L. Amer, CLSI breakpoints
  % R (resistance): 0%
[3]; L. Amer, N=506
  MIC90: 1 µg/mL (≈ 0.69 µM)
[3]; N America, CLSI breakpoints
  % R (resistance): 0%
[3]; N America, N=2508
  MIC90: 1 µg/mL (≈ 0.69 µM)
[4]; Asia/Pac, Eucast breakpoints
  % R (resistance): 100%
[4]; Asia/Pac, N=24
  MIC90: > 16 µg/mL
[4]; Europe, Eucast breakpoints
  % R (resistance): 100%
[4]; Europe, N=71
  MIC90: > 16 µg/mL
[4]; L. Amer, CLSI breakpoints
  % R (resistance): 100%
[4]; L. Amer, N=41
  MIC90: > 16 µg/mL
[4]; N America, CLSI breakpoints
  % R (resistance): 99.4%
[4]; N America, N=478
  MIC90: > 16 µg/mL
[5]; Asia/Pac, N=1
  range of MICs (N <10, shown instead of MIC90): >16
[5]; Europe, Eucast breakpoints
  % R (resistance): 100%
[5]; Europe, N=8
  range of MICs (N <10, shown instead of MIC90): > 16
[5]; L. Amer, CLSI breakpoints
  % R (resistance): 100%
[5]; L. Amer, N=7
  range of MICs (N <10, shown instead of MIC90): > 16
[5]; N America, CLSI breakpoints
  % R (resistance): 92.1%
[5]; N America, N=38
  MIC90: > 16 µg/mL
[6]; Asia/Pac, Eucast breakpoints
  % R (resistance): 0%
[6]; Asia/Pac, N=106
  MIC90: 1 µg/mL (≈ 0.69 µM)
[6]; Europe, Eucast breakpoints
  % R (resistance): 0%
[6]; Europe, N=303
  MIC90: 1 µg/mL (≈ 0.69 µM)
[6]; L. Amer, CLSI breakpoints
  % R (resistance): 0%
[6]; L. Amer, N=51
  MIC90: 1 µg/mL (≈ 0.69 µM)
[6]; N America, CLSI breakpoints
  % R (resistance): 0%
[6]; N America, N=115
  MIC90: 1 µg/mL (≈ 0.69 µM)
[7]; Asia/Pac, Eucast breakpoints
  % R (resistance): 0%
[7]; Asia/Pac, N=641
  MIC90: 1 µg/mL (≈ 0.69 µM)
[7]; Europe, Eucast breakpoints
  % R (resistance): 0%
[7]; Europe, N=2109
  MIC90: 1 µg/mL (≈ 0.69 µM)
[7]; L. Amer, CLSI breakpoints
  % R (resistance): 0%
[7]; L. Amer, N=590
  MIC90: 1 µg/mL (≈ 0.69 µM)
[7]; N America, CLSI breakpoints
  % R (resistance): 0%
[7]; N America, N=2373
  MIC90: 1 µg/mL (≈ 0.69 µM)
[8]; Asia/Pac, Eucast breakpoints
  % R (resistance): 0%
[8]; Asia/Pac, N=214
  MIC90: 2 µg/mL (≈ 1.38 µM)
[8]; Europe, Eucast breakpoints
  % R (resistance): 0%
[8]; Europe, N=669
  MIC90: 2 µg/mL (≈ 1.38 µM)
[8]; L. Amer, CLSI breakpoints
  % R (resistance): 0%
[8]; L. Amer, N=290
  MIC90: 2 µg/mL (≈ 1.38 µM)
[8]; N America, CLSI breakpoints
  % R (resistance): 0%
[8]; N America, N=863
  MIC90: 2 µg/mL (≈ 1.38 µM)
